Usually IC50 stands for the concentration at which inhibition is half-maximal.

The assay has as its target metabotropic glutamate receptor (mGluR5) (Homo sapiens, UniProt P41594). Put plainly: Cytosolic calcium studies with stably transfected cells (FLIPR). Format: cell-based. The arrangement: expressed in transfected cells; host or cells: CHO-K1 cells, IPTG-inducible expression. To be noted: CHO-K1 cells expressing human mGluR5; agonist L-quisqualic acid; read-out: mGluR5_FLIPR_h_CHO_NAM IC50. How it is done: Cytosolic Calcium Studies with Stably Transfected Cells:
Chinese hamster ovary cells (CHO-K1 cells), stably transfected for inducible expression of a human metabotropic glutamate receptor mGluR5, are seeded into black clear bottom 96 well plates at a density of 35.000 cells per well. The standard growth medium used (Dulbecco's modified Eagle Medium, DMEM plus L-proline) contains the appropriate inducer isopropyl-β-D-thiogalactopyranosid (IPTG) to achieve optimal receptor expression. One day after seeding the growth medium is exchanged for reconstituted Ca-Kit (Molecular Devices, USA) and incubated for one hour. Ca-Kit is reconstituted in an assay buffer containing 20 mM HEPES pH 7.4, glutamic-pyruvate transaminase, pyridoxal phosphate and sodium pyruvate in Hank's balanced salt solution (HBBS). Agonistic compounds to the receptor elicit increases in cytosolic calcium which can be measured as increases in fluorescence signals by use of a fluorescence imaging plate reader (Molecular Devices).
The fluorescence signal increase after addition of agonist reflects the increase of cytosolic calcium. Inconsistencies in the amount of cells per well are normalised by using the spatial uniformity correction of the FLIPR software. The mean of replicated temporal data (n=3-5) is calculated and used for graphical representation. For the evaluation of the pharmacology, the calcium changes in response to different concentrations of agonist or antagonist are determined using a maximum minus minimum (MaxMin) calculation.
All responses (RFU-values) are determined as percentage of control (=maximum response). EC50 and IC50 are calculated according the logistic equation using GraFit 5.0 (Erithacus Software, GB) or Prism 4.0 (GraphPad Software, USA).

metabotropic glutamate receptor (mGluR5), sequence (P41594 21-1212): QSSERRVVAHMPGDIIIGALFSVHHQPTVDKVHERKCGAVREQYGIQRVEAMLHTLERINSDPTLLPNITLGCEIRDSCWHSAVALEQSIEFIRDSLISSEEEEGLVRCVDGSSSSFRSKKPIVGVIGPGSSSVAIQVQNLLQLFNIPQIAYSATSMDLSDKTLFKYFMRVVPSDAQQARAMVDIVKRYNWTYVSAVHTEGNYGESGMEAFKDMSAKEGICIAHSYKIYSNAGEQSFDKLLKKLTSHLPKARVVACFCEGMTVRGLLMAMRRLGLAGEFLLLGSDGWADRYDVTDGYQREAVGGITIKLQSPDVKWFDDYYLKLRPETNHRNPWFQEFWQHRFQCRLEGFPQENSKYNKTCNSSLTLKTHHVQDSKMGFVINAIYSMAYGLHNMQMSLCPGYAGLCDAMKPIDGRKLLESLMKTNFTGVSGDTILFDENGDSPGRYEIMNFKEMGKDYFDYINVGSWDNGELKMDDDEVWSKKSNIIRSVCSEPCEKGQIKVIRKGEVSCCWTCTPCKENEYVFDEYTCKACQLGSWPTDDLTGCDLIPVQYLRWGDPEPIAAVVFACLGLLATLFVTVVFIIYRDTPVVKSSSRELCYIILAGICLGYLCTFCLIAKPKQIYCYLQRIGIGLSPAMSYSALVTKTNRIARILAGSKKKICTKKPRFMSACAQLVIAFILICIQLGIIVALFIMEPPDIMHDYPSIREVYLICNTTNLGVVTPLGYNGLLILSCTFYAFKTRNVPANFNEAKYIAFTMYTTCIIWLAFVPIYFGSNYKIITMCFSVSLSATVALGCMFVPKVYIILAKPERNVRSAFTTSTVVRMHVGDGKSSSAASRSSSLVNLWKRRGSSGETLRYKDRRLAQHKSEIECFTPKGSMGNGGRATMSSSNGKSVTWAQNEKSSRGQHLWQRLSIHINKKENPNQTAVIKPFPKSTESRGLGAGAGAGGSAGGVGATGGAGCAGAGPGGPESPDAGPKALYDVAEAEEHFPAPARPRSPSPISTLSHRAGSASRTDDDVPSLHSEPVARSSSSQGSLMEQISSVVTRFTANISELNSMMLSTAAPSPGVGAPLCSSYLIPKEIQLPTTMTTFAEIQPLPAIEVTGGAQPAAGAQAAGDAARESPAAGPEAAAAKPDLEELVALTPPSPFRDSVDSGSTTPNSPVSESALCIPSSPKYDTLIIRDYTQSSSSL

For the molecule `O=C(c1cc2ncc(Cl)cn2n1)N1CCc2ncc(Br)cc2C1` [drawing 442, (3-Bromo-7,8-dihydro-5H-[1,6]naphthyridin-6-yl)-(6-chloro-pyrazolo[1,5-a]pyrrimidin-2-yl)-methanone], the IC50 worked out at 167 nM. The figure for `CC1c2cc(F)ccc2CCN1C(=O)c1cc2ncc(Br)cn2n1` (stereo not shown) [drawing 434, (6-Bromo-pyrazolo[1,5-a]pyrimidin-2-yl)-(7-fluoro-1-methyl-3,4-dihydro-1H-isoquinolin-2-yl)-methanone] is 43.8 nM.

On to `CC1c2ccc(F)cc2CCN1C(=O)c1cc2ncc(Cl)cn2n1` (stereo not shown) [drawing 436, (6-Chloro-pyrazolo[1,5-a]pyrimidin-2-yl)-(6-fluoro-1-methyl-3,4-dihydro-1H-isoquinolin-2-yl)-methanone], for which the IC50 was 66.3 nM.

`CC1c2cccc(F)c2CCN1C(=O)c1cc2ncc(Br)cn2n1` (stereo not shown) [drawing 435, (6-Bromo-pyrazolo[1,5-a]pyrimidin-2-yl)-(5-fluoro-1-methyl-3,4-dihydro-1H-isoquinolin-2-yl)-methanone]: the IC50 stood at 56.5 nM. For `COc1cc2c(cc1O)CCN(C(=O)c1cc3ncc(Br)cn3n1)C2C` (stereo not shown) [Example 1, (6-Bromo-pyrazolo[1,5-a]pyrimidin-2-yl)-(6-hydroxy-7-methoxy-1-methyl-3,4-dihydro-1H-isoquinolin-2-yl)-methanone], the IC50 was 267 nM. The figure for `CC1CN(C(=O)c2cc3ncc(Br)cn3n2)C(C)c2ccccc21` (stereo not shown) [drawing 438, (6-Bromo-pyrazolo[1,5-a]pyrimidin-2-yl)-(1,4-dimethyl-3,4-dihydro-1H-isoquinolin-2-yl)-methanone] is 161 nM; for `CC1CN(C(=O)c2cc3ncc(Cl)cn3n2)C(C)c2ccccc21` (stereo not shown) [drawing 437, (6-Chloro-pyrazolo[1,5-a]pyrimidin-2-yl)-(1,4-dimethyl-3,4-dihydro-1H-isoquinolin-2-yl)-methanone] it is 101 nM. The figure for `COc1ccc2c(c1)CCN(C(=O)c1cc3ncc(Br)cn3n1)C2C` (stereo not shown) [drawing 439, (6-Bromo-pyrazolo[1,5-a]pyrimidin-2-yl)-(6-methoxy-1-methyl-3,4-dihydro-1H-isoquinolin-2-yl)-methanone] is 159 nM; for `COc1ccc2c(c1)CCN(C(=O)c1cc3ncc(Cl)cn3n1)C2C` (stereo not shown) [drawing 440, (6-Chloro-pyrazolo[1,5-a]pyrimidin-2-yl)-(6-methoxy-1-methyl-3,4-dihydro-1H-isoquinolin-2-yl)-methanone] it is 155 nM; for `CC1c2cccc(Br)c2CCN1C(=O)c1cc2ncc(Cl)cn2n1` (stereo not shown) [drawing 441, (5-Bromo-1-methyl-3,4-dihydro-1H-isoquinolin-2-yl)-(6-chloro-pyrazolo[1,5-a]pyrimidin-2-yl)-methanone] it is 178 nM.
